The source of these data is patent publication US11452717B2, “Small molecule activators of nicotinamide phosphoribosyltransferase (NAMPT) and uses thereof” (Sanford Burnham Prebys Medical Discovery Institute, priority 2017, dated 2022).

The experiment addresses NAMPT enzyme (Homo sapiens (Human), UniProt P43490). Briefly: Enzyme Assay and NMN Detection (NAMPT reaction, fluorescence detection of NMN). In kind it is biochemical. The settings on record: NAMPT activation, NMN formation. In a few lines: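 NMN formed was read at ex380/em460 after acetophenone/KOH derivatization and formic acid addition, using a same-day calibration curve. Final conditions: NAMPT 16 nM, nicotinamide 5 uM, PRPP 6.25 uM, ATP 120 uM, pyrophosphatase 0.04 U/ml, pH 7.5 HEPES buffer with MgCl2 and TCEP, 2 h at room temperature.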

Chain of NAMPT enzyme (P43490 whole entry, species assumed): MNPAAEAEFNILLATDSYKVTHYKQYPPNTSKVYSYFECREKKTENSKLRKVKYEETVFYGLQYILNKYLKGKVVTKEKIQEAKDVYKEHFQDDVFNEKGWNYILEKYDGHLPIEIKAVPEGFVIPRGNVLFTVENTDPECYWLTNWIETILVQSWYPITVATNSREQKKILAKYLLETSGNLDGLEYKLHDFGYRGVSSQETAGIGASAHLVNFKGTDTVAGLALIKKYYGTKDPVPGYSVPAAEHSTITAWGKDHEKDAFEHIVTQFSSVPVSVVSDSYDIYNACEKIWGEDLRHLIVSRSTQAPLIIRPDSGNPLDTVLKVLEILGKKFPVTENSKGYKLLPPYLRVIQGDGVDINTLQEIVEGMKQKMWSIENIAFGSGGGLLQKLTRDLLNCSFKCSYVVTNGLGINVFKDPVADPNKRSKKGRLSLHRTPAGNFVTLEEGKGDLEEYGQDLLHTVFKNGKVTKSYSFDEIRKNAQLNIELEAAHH

A word on the EC50: it is the concentration needed to bring the measured effect to its halfway point. In the case of `O=C(NCc1cn[nH]c1)Nc1ccc(C(=O)Nc2cccc(Cl)c2)cc1` [N-(3-Chloro-phenyl)-4-[3-(1H-pyrazol-4-ylmethyl)-ureido]-benzamide], the EC50 (Table B-1) lay in the range of 100 to 2000 nM.

Under “Table B-2”, `N#Cc1cccc(CNS(=O)(=O)c2ccc(NC(=O)NCc3ccncc3)cc2)c1` [N-(3-Cyano-benzyl)-4-(3-pyridin-4-ylmethyl-ureido)-benzenesulfonamide] had an EC50 of 100 to 2000 nM.

On to `CN(C)c1cccc(CNS(=O)(=O)c2ccc(NC(=O)NCc3ccncc3)cc2)c1` [N-(3-Dimethylamino-benzyl)-4-(3-pyridin-4-ylmethyl-ureido)-benzenesulfonamide], for which, under “Table B-2”, the EC50 lay within 100 to 2000 nM. `O=C(NCc1cn[nH]c1)Nc1ccc(S(=O)(=O)NCc2cccc(F)c2)cc1` [N-(3-Fluoro-benzyl)-4-[3-(1H-pyrazol-4-ylmethyl)-ureido]-benzenesulfonamide] had an EC50 (Table B-4) of 100 to 2000 nM. Where the note is “Table B-2”, `COc1cccc(CNS(=O)(=O)c2ccc(NC(=O)NCc3ccncc3)cc2)c1` [N-(3-Methoxy-benzyl)-4-(3-pyridin-4-ylmethyl-ureido)-benzenesulfonamide] gave an EC50 of 100 to 2000 nM.

As for `COc1cccc(CNS(=O)(=O)c2ccc(NC(=O)NCc3cn[nH]c3)cc2)c1` [N-(3-Methoxy-benzyl)-4-[3-(1H-pyrazol-4-ylmethyl)-ureido]-benzenesulfonamide], the EC50 (Table B-1) lay within 100 to 2000 nM.

For the setting “Table B-2”, `COc1cccc(NS(=O)(=O)c2ccc(NC(=O)NCc3ccncc3)cc2)c1` [N-(3-Methoxy-phenyl)-4-(3-pyridin-4-ylmethyl-ureido)-benzenesulfonamide] showed an EC50 of 100 to 2000 nM. Molecule `COCCCNS(=O)(=O)c1ccc(NC(=O)NCc2ccncc2)cc1` [N-(3-Methoxy-propyl)-4-(3-pyridin-4-ylmethyl-ureido)-benzenesulfonamide] showed an EC50 (Table B-2) of 100 to 2000 nM. On to `Cc1cccc(CNS(=O)(=O)c2ccc(NC(=O)NCc3ccncc3)cc2)c1` [N-(3-Methyl-benzyl)-4-(3-pyridin-4-ylmethyl-ureido)-benzenesulfonamide], for which the EC50 (Table B-2) is 100 to 2000 nM. In turn, `O=C(NCc1ccncc1)Nc1ccc(C(=O)NCc2cccc(Cl)c2)cc1` [N-(3-chlorobenzyl)-4-(3-(pyridin-4-ylmethyl)ureido)benzamide] had an EC50 (Table B-2) above 20000 nM. Still for that read-out and setting: the figure for `O=C(NCc1ccncc1)Nc1ccc(C(=O)Nc2cccc(Cl)c2)cc1` [N-(3-chlorophenyl)-4-(3-(pyridin-4-ylmethyl)ureido)benzamide] is 100 to 2000 nM; for `CCOCCCNC(=O)c1ccc(NC(=O)NCc2ccncc2)cc1` [N-(3-ethoxypropyl)-4-(3-(pyridin-4-ylmethyl)ureido)benzamide] it is 100 to 2000 nM.

Turning to `O=C(NCc1ccncc1)Nc1ccc(C(=O)NCc2cccc(F)c2)cc1` [N-(3-fluorobenzyl)-4-(3-(pyridin-4-ylmethyl)ureido)benzamide], the EC50 (Table B-2) was above 20000 nM.

For the molecule `O=C(NCc1ccncc1)Nc1ccc(S(=O)(=O)NCc2cccc(F)c2)cc1` [N-(3-fluorobenzyl)-4-(3-(pyridin-4-ylmethyl)ureido)benzenesulfonamide], the EC50 (Table B-2) lay within 100 to 2000 nM. Take `O=C(NCc1ccncc1)Nc1ccc(C(=O)Nc2cccc(F)c2)cc1` [N-(3-fluorophenyl)-4-(3-(pyridin-4-ylmethyl)ureido)benzamide]: the EC50 (Table B-2) fell in the range of 100 to 2000 nM. Same read-out and setting: the figure for `COc1cccc(CNC(=O)c2ccc(NC(=O)NCc3ccncc3)cc2)c1` [N-(3-methoxybenzyl)-4-(3-(pyridin-4-ylmethyl)ureido)benzamide] is above 20000 nM; for `COc1cccc(NC(=O)c2ccc(NC(=O)NCc3ccncc3)cc2)c1` [N-(3-methoxyphenyl)-4-(3-(pyridin-4-ylmethyl)ureido)benzamide] it is 100 to 2000 nM. On to `Cc1cccc(CNC(=O)c2ccc(NC(=O)NCc3ccncc3)cc2)c1` [N-(3-methylbenzyl)-4-(3-(pyridin-4-ylmethyl)ureido)benzamide], for which, where the note is “Table B-2”, the EC50 was above 20000 nM. Same read-out and setting: the figure for `Cc1cc(NC(=O)c2ccc(NC(=O)NCc3ccncc3)cc2)on1` [N-(3-methylisoxazol-5-yl)-4-(3-(pyridin-4-ylmethyl)ureido)benzamide] is 2000 to 5000 nM; for `Cc1nc(NS(=O)(=O)c2ccc(NC(=O)NCc3ccncc3)cc2)oc1C` [N-(4,5-Dimethyl-oxazol-2-yl)-4-(3-pyridin-4-ylmethyl-ureido)-benzenesulfonamide] it is above 20000 nM. `O=C(NCc1cn[nH]c1)Nc1ccc(NS(=O)(=O)Cc2ccccc2)cc1` [N-(4-(3-((1H-pyrazol-4-yl)methyl)ureido)phenyl)-1-phenylmethanesulfonamide] registered an EC50 (Table B-1) below 100 nM.

With `CN(C)Cc1ccc(CNS(=O)(=O)c2ccc(NC(=O)NCc3ccncc3)cc2)cc1` [N-(4-((dimethylamino)methyl)benzyl)-4-(3-(pyridin-4-ylmethyl)ureido)benzenesulfonamide], the EC50 (Table B-2) was below 100 nM. The same measure, in the same setting: the figure for `CN(C)c1ccc(NC(=O)c2ccc(NC(=O)NCc3ccncc3)cc2)cc1` [N-(4-(dimethylamino)phenyl)-4-(3-(pyridin-4-ylmethyl)ureido)benzamide] is 100 to 2000 nM. The same measure, in the same setting: the figure for `COCc1ccc(NC(=O)c2ccc(NC(=O)NCc3ccncc3)cc2)cc1` [N-(4-(methoxymethyl)phenyl)-4-(3-(pyridin-4-ylmethyl)ureido)benzamide] is above 20000 nM.

In turn, `O=C(NCc1cn[nH]c1)Nc1ccc(S(=O)(=O)NCc2ccc(Cl)cc2)cc1` [N-(4-Chloro-benzyl)-4-[3-(1H-pyrazol-4-ylmethyl)-ureido]-benzenesulfonamide] came in with an EC50 (Table B-1) of 100 to 2000 nM. As for `CN(C)c1ccc(CNS(=O)(=O)c2ccc(NC(=O)NCc3ccncc3)cc2)cc1` [N-(4-Dimethylamino-benzyl)-4-(3-pyridin-4-ylmethyl-ureido)-benzenesulfonamide], the EC50 (Table B-2) lay in the range of 100 to 2000 nM. Under “Table B-2”, `CS(=O)(=O)c1ccc(CNS(=O)(=O)c2ccc(NC(=O)NCc3ccncc3)cc2)cc1` [N-(4-Methanesulfonyl-benzyl)-4-(3-pyridin-4-ylmethyl-ureido)-benzenesulfonamide] returned an EC50 of 100 to 2000 nM. Turning to `COc1ccc(CNS(=O)(=O)c2ccc(NC(=O)NCc3cn[nH]c3)cc2)cc1` [N-(4-Methoxy-benzyl)-4-[3-(1H-pyrazol-4-ylmethyl)-ureido]-benzenesulfonamide], the EC50 (Table B-1) was below 100 nM. Take `COc1ccc(NS(=O)(=O)c2ccc(NC(=O)NCc3ccncc3)cc2)cc1` [N-(4-Methoxy-phenyl)-4-(3-pyridin-4-ylmethyl-ureido)-benzenesulfonamide]: the EC50 (Table B-2) is 100 to 2000 nM. Same read-out and setting: the figure for `COCc1ccc(CNS(=O)(=O)c2ccc(NC(=O)NCc3ccncc3)cc2)cc1` [N-(4-Methoxymethyl-benzyl)-4-(3-pyridin-4-ylmethyl-ureido)-benzenesulfonamide] is 100 to 2000 nM.

`Cc1ccc(CNS(=O)(=O)c2ccc(NC(=O)NCc3cn[nH]c3)cc2)cc1` [N-(4-Methyl-benzyl)-4-[3-(1H-pyrazol-4-ylmethyl)-ureido]-benzenesulfonamide]: under “Table B-4”, the EC50 lay within 100 to 2000 nM. `Cc1ccnc(NS(=O)(=O)c2ccc(NC(=O)NCc3ccncc3)cc2)n1` [N-(4-Methyl-pyrimidin-2-yl)-4-(3-pyridin-4-ylmethyl-ureido)-benzenesulfonamide] yielded an EC50 (Table B-2) of 100 to 2000 nM. For the molecule `O=C(NCc1ccncc1)Nc1ccc(C(=O)NCc2ccc(Cl)cc2)cc1` [N-(4-chlorobenzyl)-4-(3-(pyridin-4-ylmethyl)ureido)benzamide], where the note is “Table B-2”, the EC50 was above 20000 nM. `O=C(NCc1ccncc1)Nc1ccc(S(=O)(=O)NCc2ccc(Cl)cc2)cc1` [N-(4-chlorobenzyl)-4-(3-(pyridin-4-ylmethyl)ureido)benzenesulfonamide]: the EC50 (Table B-2) fell in the range of 100 to 2000 nM.

Turning to `O=C(NCc1ccncc1)Nc1ccc(C(=O)Nc2ccc(Cl)cc2)cc1` [N-(4-chlorophenyl)-4-(3-(pyridin-4-ylmethyl)ureido)benzamide], the EC50 (Table B-2) lay in the range of 100 to 2000 nM.

Take `N#Cc1ccc(CNS(=O)(=O)c2ccc(NC(=O)NCc3ccncc3)cc2)cc1` [N-(4-cyanobenzyl)-4-(3-(pyridin-4-ylmethyl)ureido)benzenesulfonamide]: the EC50 (Table B-2) fell in the range of 100 to 2000 nM. Same read-out and setting: the figure for `N#Cc1ccc(NC(=O)c2ccc(NC(=O)NCc3ccncc3)cc2)cc1` [N-(4-cyanophenyl)-4-(3-(pyridin-4-ylmethyl)ureido)benzamide] is 100 to 2000 nM; for `CCOc1ccc(NC(=O)c2ccc(NC(=O)NCc3ccncc3)cc2)cc1` [N-(4-ethoxyphenyl)-4-(3-(pyridin-4-ylmethyl)ureido)benzamide] it is 100 to 2000 nM. Still for that read-out and setting: the figure for `O=C(NCc1ccncc1)Nc1ccc(C(=O)NCc2ccc(F)cc2)cc1` [N-(4-fluorobenzyl)-4-(3-(pyridin-4-ylmethyl)ureido)benzamide] is above 20000 nM; for `O=C(NCc1ccncc1)Nc1ccc(S(=O)(=O)NCc2ccc(F)cc2)cc1` [N-(4-fluorobenzyl)-4-(3-(pyridin-4-ylmethyl)ureido)benzenesulfonamide] it is 100 to 2000 nM; for `O=C(NCc1ccncc1)Nc1ccc(C(=O)NCCc2ccc(F)cc2)cc1` [N-(4-fluorophenethyl)-4-(3-(pyridin-4-ylmethyl)ureido)benzamide] it is 100 to 2000 nM. Same read-out and setting: the figure for `O=C(NCc1ccncc1)Nc1ccc(C(=O)Nc2ccc(F)cc2)cc1` [N-(4-fluorophenyl)-4-(3-(pyridin-4-ylmethyl)ureido)benzamide] is 100 to 2000 nM. `CC(C)Oc1ccc(NC(=O)c2ccc(NC(=O)NCc3ccncc3)cc2)cc1` [N-(4-isopropoxyphenyl)-4-(3-(pyridin-4-ylmethyl)ureido)benzamide] returned an EC50 (Table B-2) of 100 to 2000 nM. Still for that read-out and setting: then `COc1ccc(NC(=O)c2ccc(NC(=O)NCc3ccncc3)cc2)cc1C` [N-(4-methoxy-3-methylphenyl)-4-(3-(pyridin-4-ylmethyl)ureido)benzamide], with 100 to 2000 nM; and `COc1ccc(CNC(=O)c2ccc(NC(=O)NCc3ccncc3)cc2)cc1` [N-(4-methoxybenzyl)-4-(3-(pyridin-4-ylmethyl)ureido)benzamide], with above 20000 nM.
